Measurements published in patent US20120316199A1, “COMPOSITIONS AND METHODS FOR TREATING, CONTROLLING, REDUCING, OR AMELIORATING INFLAMMATORY PAIN” (priority 2011, published 2012).
“And” between values parts separate entries of the source, which are not always exact repeats. Equal entries are not always repeated.

Assays:
[1] = system: IL-1β-stimulated cytokine expression in primary human corneal epithelial cells; experiment: IL-1β-stimulated cytokine production in primary human corneal epithelial cells (30-cytokine Luminex kit); details: HCECs
Method: Primary HCECs were seeded in 24-well plates. […] Each treatment was performed in triplicate. Media were collected and used for determination of cytokine content using a 30-cytokine Luminex kit. Cell viability was determined by alamarBlue assay (LP06013).
Median fluorescence intensity (MFI) was used to obtain the concentration of each cytokines in pg/ml based on the standard curve of each cytokine assayed by Luminex. The linear range of the standard curve for each cytokine was used for determination of cytokine concentration. Duplicate values for each sample were averaged. Data were expressed as mean±SD. Statistical analysis was performed using one-way ANOVA-Dunnett's test, and P<0.05 was considered statistically significant.

pupillary diameter = experiment: Pupillary diameter measurement, rabbit paracentesis model; assay type: in vivo, Rabbit (New Zealand); details: for Pupillary diameter T2: −5 min: 5 min before the first paracentesis; for Pupillary diameter T2: −5 min / Pupillary diameter T3: +115 min / Pupillary diameter T1: −180 min: raw data per eye, listed as BOL; for Pupillary diameter T3: +115 min: 5 min before the second paracentesis; for Pupillary diameter T1: −180 min: basal; for Mean (mm) Δ(T3 − T1) of pupillary diameter: group mean, n=8 eyes
[2] = system: pain following cataract surgery; experiment: Clinical study after cataract surgery: Grade 0 pain; assay type: in vivo, human
From the text: (§1) There were 8 treatment groups in this study, consisting of three drug doses, vehicle and three dosing frequencies (see also Table 4-1): • Group A: 1% BOL-303242-X ophthalmic suspension, two times per day (BID) • Group B: 2% BOL-303242-X ophthalmic suspension, one time per day (QD) • Group C: 2% BOL-303242-X ophthalmic suspension, BID • Group D: 2% BOL-303242-X ophthalmic suspension, four times per day (QID) • Group E: 3% BOL-303242-X ophthalmic suspension, QD • Group F: 3% BOL-303242-X ophthalmic suspension, BID • Group G: 3% BOL-303242-X ophthalmic suspension, QID • Group H: Vehicle for BOL-303242-X (divided equally into QID, BID, and QD)
(§2) Subjects self-administered study drug, instilling 1 to 2 drops of study drug into the study eye: QID at approximately 4 hour intervals, BID at approximately 12 hour intervals, or QD once in the morning, for 14 days. The initial dose occurred in the clinic at Visit 3 and the final dose was on the day before Visit 6 (postoperative Day 15±1 day). Subjects were examined and evaluated according to the following schedule:
(§3) Visit 1 (screening), Visit 2 (cataract surgery), Visit 3 (postoperative Day 1), Visit 4 (postoperative Day 3±1 day), Visit 5 (postoperative Day 8±1 day), Visit 6 (postoperative Day 15±1 day), Visit 7 (postoperative Day 18±1 day). Subject assessments included adverse events (AEs), concomitant medications, ocular symptoms, pinholed Snellen visual acuity (VA), intraocular pressure (IOP), ocular signs (biomicroscopy), fundoscopy, and study drug drop sensation. In addition, subject diaries were collected and reviewed for accuracy and treatment compliance.
Secondary Efficacy: The secondary efficacy endpoints for this study were the proportions of subjects with Grade 0 pain at Visit 5 (postoperative Day 8) and at each visit, complete resolution of AC cells at each visit, complete resolution of AC cells and flare at each visit, complete resolution of AC flare at each visit, change from baseline to each follow-up visit in AC cells and AC flare combined and separately, ocular symptoms.

[3] = system: anterior-segment inflammation after anterior chamber paracentesis; experiment: Rabbit paracentesis model, overall anti-inflammatory activity; assay type: in vivo, Rabbit (New Zealand)
ocular signs = experiment: Clinical study after cataract surgery: ocular signs (biomicroscopy); assay type: in vivo, human
From the text: as §1, §3
Safety: The safety endpoints in this study were: incidence of AEs, change in IOP, ocular signs (biomicroscopy), Snellen VA, fundoscopy, study drug drop sensation assessment.

rabbit eyes = experiment: Ophthalmic observations (slit lamp, McDonald Shadduck scores) in New Zealand White rabbits; assay type: in vivo; set-up: key to Ophthalmic Observation (Slit-Lamp): AN = Appeared normal; key to Cornea Score: CORNEA 1 = Some loss of transparency. Only the epithelium and/or the anterior half of the stoma are involved. The underlying structures are clearly visible although some cloudiness may be readily apparent
Method: Prior to placement on study, each animal underwent a pre-treatment ophthalmic examination (slit lamp and indirect ophthalmoscopy). Observations were scored according to the McDonald Shadduck system and recorded using a standardized data collection sheet.
(§4) On Days 1-31, animals received daily topical doses of the appropriate test article into the right eye. Animals were dosed four times per day, with doses administered 2 hours apart. Doses were administered using a calibrated 50-μL pipette. The eyelids were held close for 10 seconds immediately following dosing. The time of each dose administration was recorded.
Ophthalmic examinations (slit lamp) were performed prior to the first dosing on Days 5, 12, 22, 26, and 33. Ocular findings were scored according to the McDonald Shadduck system and recorded using a standardized data collection sheet.

[4] = system: anterior chamber cells and flare following cataract surgery; experiment: Clinical study after cataract surgery: resolution of anterior chamber (AC) cells and flare; assay type: in vivo, human; details: 2% QID, 3% QD, 3% BID, and 3% QID
From the text: as §1, §2
Visit 1 (screening), Visit 2 (cataract surgery), Visit 3 (postoperative Day 1), Visit 4 (postoperative Day 3±1 day), Visit 5 (postoperative Day 8±1 day), Visit 6 (postoperative Day 15±1 day), Visit 7 (postoperative Day 18±1 day). […]

[5] = system: New Zealand White rabbits; experiment: Mortality/morbidity in New Zealand White rabbits, topical dosing four times daily; assay type: in vivo; details: for Mortality (rabbits that died or were euthanized between Days 11 and 33): right eye four times daily, Days 1-31
Method: as §4
Animals determined to be moribund were euthanized with an intravenous injection of commercial euthanasia solution.

[6] = Group B, 10 mg/g, treated right eye, individual animals
[7] = Group C, 5 mg/g, treated right eye, individual animals
[8] = Group D, 1 mg/g (0.05 mg/dose) 4 x daily, individual rabbit

Cc1ccc2c(NC[C@](O)(CC(C)(C)c3cc(F)cc4c3OCC4)C(F)(F)F)cccc2n1 [BOL-303242-X, mapracorat]
Potency relative to dexamethasone, inhibition of IL-1β-stimulated IL-6, IL-7, TGF-α, TNF-α, VGEF, and MCP-1 [1]: comparable potency
Potency relative to dexamethasone, inhibition of IL-1β-stimulated production of G-CSF [1]: more potent than dexamethasone
Potency relative to dexamethasone, inhibition of IL-1β-stimulated production of GM-CSF, IL-8, and RANTES [1]: somewhat less potent than dexamethasone
Inhibition of IL-1β-stimulated production of IL-6, IL-7, MCP-1, TGF-α, TNF-α and VEGF ([1]; 10 ng/ml IL-1β, 18 h, comparable potency of both compounds): significantly inhibited
Effect on IL-1β-stimulated G-CSF production ([1]; 18 h): significantly inhibited
Inhibition of IL-1β-stimulated production of GM-CSF, IL-8, and RANTES ([1]; 18 h, less potency compared to dexamethasone): significantly inhibited
Pupillary diameter T2: −5 min (pupillary diameter; 0.1% formulation): 6.5 mm and 7.0 mm and 7.5 mm
Pupillary diameter T3: +115 min (pupillary diameter; 0.1% formulation): 5.0 mm and 6.0 mm and 6.5 mm and 5.5 mm
Pupillary diameter T1: −180 min (pupillary diameter; 0.1% formulation): 6.5 mm and 7.0 mm and 7.5 mm
Mean (mm) Δ(T3 − T1) of pupillary diameter (pupillary diameter; 0.1% formulation): −1.1 mm
Pupillary diameter T2: −5 min (pupillary diameter; 0.5% formulation): 8.0 mm and 7.0 mm and 7.5 mm
Pupillary diameter T3: +115 min (pupillary diameter; 0.5% formulation): 6.5 mm and 6.0 mm and 7.0 mm
Pupillary diameter T1: −180 min (pupillary diameter; 0.5% formulation): 8.0 mm and 7.0 mm and 7.5 mm
Mean (mm) Δ(T3 − T1) of pupillary diameter (pupillary diameter; 0.5% formulation): −1.0 mm
Pupillary diameter T2: −5 min (pupillary diameter; 1% formulation): 6.0 mm and 6.5 mm and 7.0 mm
Pupillary diameter T3: +115 min (pupillary diameter; 1% formulation): 5.5 mm and 5.0 mm and 6.0 mm
Pupillary diameter T1: −180 min (pupillary diameter; 1% formulation): 6.0 mm and 6.5 mm
Mean (mm) Δ(T3 − T1) of pupillary diameter (pupillary diameter; 1% formulation): −0.9 mm
proportion of subjects with Grade 0 pain ([2]; 2% QID, Visit 5 (postoperative Day 8), vehicle 50.0%): 78.3%
proportion of subjects with Grade 0 pain ([2]; 3% BID, Visit 7 (postoperative Day 18), vehicle 31.7%): 63.3%
proportion of subjects with Grade 0 pain ([2]; 3% QID, Visit 7 (postoperative Day 18), vehicle 31.7%): 58.3%
Activity in the rabbit paracentesis model ([3]; 0.1%, 0.5% and 1% topical formulations, preliminary conclusion): active in this model
Anti-inflammatory effectiveness compared with steroid and NSAID positive controls ([3]; rabbit paracentesis model): as effective an anti-inflammatory drug as some of the commonly accepted prior-art steroids or NSAID
proportions of subjects with increases in scores for anterior vitreous haze, corneal edema, corneal staining, eyelid erythema, hyphema, and posterior synechiae (ocular signs; any dose groups at any postoperative visits): No statistically significant differences
proportions of subjects with increases in scores for AC cells, AC flare, bulbar conjunctival injection, chemosis, ciliary flush, palpebral conjunctival injection (ocular signs; certain dose groups at Visits 4, 5, 7 as listed): statistically significantly lower proportions of subjects with increases in scores
Slit-lamp ophthalmic finding in dosed right eye (rabbit eyes; 1 mg/g suspension, one eye (Group D, No. 3043)): subconjunctival hemorrhage
Slit-lamp ophthalmic finding in dosed right eye (rabbit eyes; 10 mg/g suspension, one eye (Group B, No. 3083)): pinpoint corneal scar
Surface area of cornea involvement Score (rabbit eyes; Group B, 10 mg/g, treated right eye, animal 3083, Day 5): 1 (SURFACE AREA OF CORNEA INVOLVEMENT 1 = 1-25% area of stromal cloudiness.)
Cornea Score (rabbit eyes; Group B, 10 mg/g, treated right eye, animal 3083, Day 5, pinpoint corneal scar): 1^(2)
Conjunctival congestion Score (rabbit eyes; [6]): 1
Ophthalmic Observation (Slit-Lamp) (rabbit eyes; [6]): AN
Conjunctival congestion Score (rabbit eyes; [7]): 1
Ophthalmic Observation (Slit-Lamp) (rabbit eyes; [7]): AN
Conjunctival congestion Score (rabbit eyes; Group D, 1 mg/g, treated right eye, individual animal, Day 22): 1
Ophthalmic Observation (Slit-Lamp) (rabbit eyes; Group D, 1 mg/g, treated right eye, individual animals): AN
Ophthalmic observation associated with unilateral topical instillation (rabbit eyes; four times daily up to 31 days, BOL-303242-X 0.05, 0.25, or 0.5 mg/dose, dexamethasone 0.05 mg/dose): sporadic mild conjunctival congestion
improvements in AC cells and Grade 0 pain at Visit 5 (postoperative Day 8) [4]: statistically significant improvements
Mortality (rabbits that died or were euthanized between Days 11 and 33) ([5]; 0.05 mg/dose (0.1% dexamethasone suspension or 1 mg/g BOL-303242-X)): one of ten
Mortality (rabbits that died or were euthanized between Days 11 and 33) ([5]; 5 mg/g suspension ([…])): two of ten
Morbidity noted in a surviving rabbit ([5]; 10 mg/g (0.5 mg/dose), one surviving rabbit (Group B, No. 3048)): diarrhea on Day 18
Mortality (rabbits that died or were euthanized between Days 11 and 33) ([5]; 10 mg/g suspension (0.5 mg/dose)): one of ten
Mortality rate per dose level ([5]; 0.05, 0.25, or 0.5 mg/dose four times daily up to 31 days): 1-2 deaths per 10 rabbits
Day of Death (day euthanized or found dead) ([5]; Group B, 10 mg/g (0.5 mg/dose) 4 x daily, individual rabbit): 11
Day of Death (day euthanized or found dead) [5, 8]: 29
Recorded Notes on death [5, 8]: Found dead.
